{
  "source": "paper PMC8270270",
  "about": "“Rosin Derivatives as a Platform for the Antiviral Drug Design” (Molecules, 2021)",
  "key": {"A549 cell culture": {"test_system": "A549 cell culture", "assay": "Cytotoxicity, colorimetric MTT assay", "format": "cell-based, human", "procedure": "The cytotoxicity of compounds (I–V) was assessed on A549 cell culture using a colorimetric MTT assay. A549 cells were incubated for 24 h at 37 °C, 5% CO2 with solutions of the studied compounds at various concentrations. Next, the cell monolayer was washed, and MTT solution was added in a volume of 0.1 mL at a concentration of […]. After 1 h of MTT contact with the cells, the wells were washed, and the formed formazan crystals were dissolved in 0.1 mL of DMSO. The results were recorded at 560 nm on a CLARIOstar Plus plate photometer (BMG LABTECH, Ortenberg, Germany). The IC50 was calculated using GraphPad Prism 6.0."}, "Candida tropicalis": {"test_system": "Candida tropicalis", "assay": "Disco-diffuse method, fungicidal activity", "format": "cell-based", "conditions": "for The Zone of Growth Inhibition: 48 h at 32 °C", "procedure": "(§1) The determination of compounds (I, IV, VI–XI) effect concerning microorganisms was carried out using test strains of Escherichia coli, Bacillus subtilis, and Candida tropicalis. They are not only natural inhabitants of natural biocenoses but also a part of human microbiocenosis. Used microorganisms of bacteria were selected as representatives of the Gram-positive and Gram-negative human microbiota. The antibacterial activity of compounds (I, IV, VI–XI) was studied by the disco-diffuse method. The strain culture was transferred sterile from the mown agar into test tubes with 5 mL of nutrient medium to obtain a “night culture” 12–15 h before the experiment. Beef-extract agar (BEA) was used as a nutrient medium for the development of bacterial cells, and Sabouraud’s medium was used for yeast. Bacterial cultures were incubated in a thermostat at 37 °C, and yeast cultures at 32 °C. The melted BEA was poured sterile into Petri dishes (diameter 90 mm) and evenly distributed over the bottom of the dish, covered with a lid, and left on the table until it solidified completely. Next, the dishes with BEA were inoculated with a “lawn” by introducing a strain culture (suspension titer −1–2 × 10^8 CFU/mL) in an amount of 500 µL and evenly distributing it with a sterile spatula. The dishes were left for 60–90 min to dry the culture. Compounds (I, IV, VI–XI) were previously dissolved, and the sequential dilutions were applied to disks. Dimethyl sulfoxide (DMSO) was used as a solvent for the DAA. Water was used as a solvent for their potassium salts. […] This disk was impregnated with a solution of the test compound amounting to 100 μL and incubated in the dark for 24 h at 37 °C (Escherichia coli and Bacillus subtilis) and 48 h at 32 °C (Candida tropicalis). The solution diffuses, forming a concentration gradient of the test compound around the disc. After the incubation period, the inhibition zone or stimulation of microbial growth around the disk was measured in the experimental and control samples. A conclusion was made about the degree (bactericidal) toxicity of compounds. Solvent-treated disks (DMSO) were used as controls. The experiments were performed three times."}, "[1]": {"test_system": "A/California/07/09 ((A)H1N1pdm09) viral strain", "format": "cell-based, influenza virus"}, "Escherichia coli": {"test_system": "Escherichia coli", "assay": "Disco-diffuse method, antibacterial activity", "format": "cell-based", "conditions": "for The Zone of Growth Inhibition: 24 h at 37 °C", "procedure": "as §1"}, "Bacillus subtilis": {"test_system": "Bacillus subtilis", "assay": "Disco-diffuse method, antibacterial activity", "format": "cell-based", "conditions": "for The Zone of Growth Inhibition: 24 h at 37 °C", "procedure": "as §1"}, "[2]": {"test_system": "herpes simplex virus type 1 (HSV-1)", "design": "method as in PMID 19892441", "conditions": "endpoint titration (EPTT); cited from earlier work"}, "[3]": {"conditions": "compound concentration 10 mg/mL"}, "[4]": {"conditions": "compound concentration 25 mg/mL"}, "[5]": {"conditions": "compound concentration 50 mg/mL"}},
  "data": [
    {"compound": "CC(C)c1cc2c(cc1S(=O)(=O)[O-])C1(C)CCCC(C)(C(=O)[O-])C1CC2.[K+].[K+]", "note": "(stereo not shown) [IV, Potassium 12-sulfodehydroabietate]", "values": [
      {"measurement": "Cytotoxicity (in words)", "setting": "A549 cell culture; A549, MTT assay", "result": "weak toxicity"},
      {"measurement": "IC50", "setting": "A549 cell culture; Homo sapiens, A549, 24 h, read-out: Determined IC50", "result": "> 431", "unit": "µg/mL"},
      {"measurement": "Cell viability (in words)", "setting": "A549 cell culture; at the working concentrations used to assess antiviral activity", "result": "did not cause a significant decrease in cell viability"},
      {"measurement": "Fungicidal activity (in words)", "setting": "Candida tropicalis; 1-50 mg/mL", "result": "did not show either antibacterial activity or fungicidal activity"},
      {"measurement": "The Zone of Growth Inhibition", "setting": "Candida tropicalis; compound concentration 1 mg/mL", "result": 0, "unit": "mm"},
      {"measurement": "The Zone of Growth Inhibition", "setting": "Candida tropicalis; compound concentration 5 mg/mL", "result": 0, "unit": "mm"},
      {"measurement": "The Zone of Growth Inhibition", "setting": "Candida tropicalis; [3]", "result": 0, "unit": "mm"},
      {"measurement": "The Zone of Growth Inhibition", "setting": "Candida tropicalis; [4]", "result": 0, "unit": "mm"},
      {"measurement": "The Zone of Growth Inhibition", "setting": "Candida tropicalis; [5]", "result": 0, "unit": "mm"},
      {"measurement": "Dose-dependent antiviral effect", "setting": "[1]", "result": "did not significantly reduce the viral load"},
      {"measurement": "Antiviral activity (in words)", "setting": "[1]; A549, in vitro, working concentration", "result": "did not show antiviral activity"},
      {"measurement": "Antibacterial activity (in words)", "setting": "Escherichia coli; 1-50 mg/mL", "result": "did not show either antibacterial activity or fungicidal activity"},
      {"measurement": "The Zone of Growth Inhibition", "setting": "Escherichia coli; compound concentration 1 mg/mL", "result": 0, "unit": "mm"},
      {"measurement": "The Zone of Growth Inhibition", "setting": "Escherichia coli; compound concentration 5 mg/mL", "result": 0, "unit": "mm"},
      {"measurement": "The Zone of Growth Inhibition", "setting": "Escherichia coli; [3]", "result": 0, "unit": "mm"},
      {"measurement": "The Zone of Growth Inhibition", "setting": "Escherichia coli; [4]", "result": 0, "unit": "mm"},
      {"measurement": "The Zone of Growth Inhibition", "setting": "Escherichia coli; [5]", "result": 0, "unit": "mm"},
      {"measurement": "Antibacterial activity (in words)", "setting": "Bacillus subtilis; 1-50 mg/mL", "result": "did not show either antibacterial activity or fungicidal activity"},
      {"measurement": "The Zone of Growth Inhibition", "setting": "Bacillus subtilis; compound concentration 1 mg/mL", "result": 0, "unit": "mm"},
      {"measurement": "The Zone of Growth Inhibition", "setting": "Bacillus subtilis; compound concentration 5 mg/mL", "result": 0, "unit": "mm"},
      {"measurement": "The Zone of Growth Inhibition", "setting": "Bacillus subtilis; [3]", "result": 0, "unit": "mm"},
      {"measurement": "The Zone of Growth Inhibition", "setting": "Bacillus subtilis; [4]", "result": 0, "unit": "mm"},
      {"measurement": "The Zone of Growth Inhibition", "setting": "Bacillus subtilis; [5]", "result": 0, "unit": "mm"}
    ]},
    {"compound": "CC(C)c1ccc2c(c1)CC[C@H]1[C@](C)(COC(=O)c3ccccc3)CCC[C@]21C", "note": "[dehydroabietinol benzoate]", "values": [
      {"measurement": "Concentration at which HSV-1 replication was reduced", "setting": "[2]", "result": "below 100 mg/mL"}
    ]},
    {"compound": "CC(=O)OC[C@]1(C)CCC[C@]2(C)c3ccc(C(C)C)cc3CC[C@@H]12", "note": "[dehydroabietinol acetate]", "values": [
      {"measurement": "Concentration at which HSV-1 replication was reduced", "setting": "[2]", "result": "below 100 mg/mL"}
    ]}
  ]
}
